Results on 23 molecules are retold here after PubChem BioAssay (NCI).

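Exposure lasted 48 hours, with cells grown in 96-well plates and compounds tested at five concentrations. The concentration for 50% growth inhibition is given as GI50. At the TGI there is no net growth.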

Test systems include MDA-N; DLD-1 colon; DMS 114 small cell lung; DMS 273 small cell lung; HOP-18 NSCLC; LXFL 529 NSCLC; M19-MEL melanoma; SNB-78 CNS; XF 498 CNS.
What all share (test): growth of human tumour cells (NCI), 48 h

Regarding `CC1(C)C(=S)C(C)(C)C1=S`, the TGI with MDA-N was over 100 µM.
As for `C=C1Oc2nc3ccccc3c(=O)n2C1(C)C`, the TGI in the test with DLD-1 colon, in the test with DMS 114 small cell lung, in the test on DMS 273 small cell lung, in the test on HOP-18 NSCLC, with LXFL 529 NSCLC and in the test with M19-MEL melanoma was over 100 µM throughout. Moreover, the TGI with SNB-78 CNS and in the test on XF 498 CNS was over 100 µM throughout.
The molecule `C[C@H]1CC[C@@H]2[C@@H](C)[C@H]3[C@H](C[C@H]4[C@@H]5CC=C6C[C@@H](O)CC[C@]6(C)[C@H]5C[C@H](O)[C@]34C)N2C1` displayed a TGI in the test with MDA-N of over 100 µM.
Take `CCc1c(Cl)nc(Cl)nc1Cl`: in the test with MDA-N, the TGI worked out at 10.8 µM.
As to `CC1OC(OC2CC(O)C3(CO)C4C(O)CC5(C)C(C6=CC(=O)OC6)CCC5(O)C4CCC3(O)C2)C(O)C(O)C1O` (stereo not given), in the test with MDA-N, the GI50 is under 0.0195 µM and the TGI is 0.122 µM.
As for `COc1cc([C@@H]2c3cc4c(cc3[C@H](O)[C@H]3COC(=O)[C@H]23)OCO4)cc(OC)c1OC`, the TGI in the test on DLD-1 colon was over 100 µM; in the test on HOP-18 NSCLC, over 100 µM; in the test with LXFL 529 NSCLC, over 100 µM; in the test with MDA-N, 0.5 µM; in the test with SNB-78 CNS, over 100 µM; in the test on XF 498 CNS it was over 100 µM.
On to `O=C(CCCc1ccccn1)c1ccccc1`, for which, in the test with MDA-N, the TGI is over 100 µM.
On the same count and under the same terms, the same measure for `O=S1(=O)CS(=O)(=O)OCCCO1`: over 100 µM.
In the case of `COc1ccc2c(=O)c3cc([N+](=O)[O-])ccc3n(C)c2c1`, in the test with MDA-N, the TGI is over 100 µM.
Molecule `CC1(C)CC2C=C(C=O)C3(C=O)CC3(C)C2C1` (stereo not given) yielded a TGI with MDA-N of 9.36 µM.
`Cc1cc(NS(=O)(=O)c2ccc(NC(=O)c3cccc4c(Nc5ccc(S(=O)(=O)Nc6cc(C)on6)cc5)c5ccccc5nc34)cc2)no1`: the TGI in the test on DLD-1 colon is over 100 µM; in the test on DMS 114 small cell lung, over 100 µM; in the test with DMS 273 small cell lung, over 100 µM; in the test with HOP-18 NSCLC, 69.3 µM; in the test on LXFL 529 NSCLC, 95.5 µM; in the test with M19-MEL melanoma, over 100 µM. For the same molecule, the TGI in the test on SNB-78 CNS is over 100 µM; in the test with XF 498 CNS it was 96.1 µM.
In the test with MDA-N, `NC(=O)C(NC=O)c1ccccc1` (stereo not given) displayed a TGI of over 100 µM.
Regarding `N#CCC(=O)N/N=C1\C(=O)N(c2ccc(Cl)cc2)C(=O)C(=O)C1c1nc2ccccc2o1` (stereo not given), the TGI in the test on DLD-1 colon, with DMS 114 small cell lung, in the test with DMS 273 small cell lung, in the test on HOP-18 NSCLC, with LXFL 529 NSCLC and in the test on M19-MEL melanoma was over 100 µM each time. This molecule returned a TGI in the test with SNB-78 CNS of over 100 µM.
Regarding `O=C(O)CCC1(Br)CCCCC(Br)C1=O` (stereo not given), the TGI in the test on DMS 114 small cell lung, with DMS 273 small cell lung, in the test with HOP-18 NSCLC, with LXFL 529 NSCLC, in the test on M19-MEL melanoma and in the test with SNB-78 CNS was over 100 µM in each case. For the same molecule, in the test with XF 498 CNS, the TGI is over 100 µM.
For `CC(C)(C)[Si](C)(C)O/N=C\c1ccc(O[Si](C)(C)C(C)(C)C)cc1`, the TGI in the test with DLD-1 colon is over 100 µM; in the test on DMS 114 small cell lung it was 75.3 µM; in the test with DMS 273 small cell lung, over 100 µM; with HOP-18 NSCLC it was over 100 µM; in the test with LXFL 529 NSCLC it was over 100 µM; in the test on M19-MEL melanoma it was over 100 µM. Moreover, the TGI in the test with SNB-78 CNS was over 100 µM; with XF 498 CNS it was 83 µM.
As to `O=C(O)C1CCCCN1C(=O)c1ccccc1` (stereo not given), the TGI in the test with DLD-1 colon, in the test on DMS 114 small cell lung, with DMS 273 small cell lung, in the test on HOP-18 NSCLC, with LXFL 529 NSCLC and in the test with M19-MEL melanoma was over 100 µM each time. Also, the TGI in the test on SNB-78 CNS and with XF 498 CNS was over 100 µM throughout.
`Cc1ccccc1N=Nc1c(O)[nH]c2ccccc12` gave a TGI in the test on MDA-N of over 100 µM.
In the test on MDA-N, `CC1=C(/C=C/C(C)=C/C=C/C(C)=C/C(=O)Nc2ccc(O)cc2)C(C)(C)CCC1` had a TGI of 8.35 µM.
Turning to `Clc1ccc(OC2CCO2)cc1Cl` (stereo not given), the TGI in the test with DLD-1 colon, in the test on DMS 114 small cell lung, in the test on DMS 273 small cell lung, in the test with HOP-18 NSCLC, in the test with LXFL 529 NSCLC and in the test with M19-MEL melanoma was over 100 µM each time. The molecule further displayed a TGI with SNB-78 CNS of over 100 µM.
Turning to `CCN(CC)CCNC(=O)c1cccc2cc3ccccc3nc12`, the TGI in the test with DLD-1 colon was 20.7 µM; with DMS 114 small cell lung, 19.2 µM; in the test on DMS 273 small cell lung, 24.3 µM; with HOP-18 NSCLC, 88.5 µM; with M19-MEL melanoma it was 16.6 µM; with SNB-78 CNS, 57 µM.
`COC(=O)c1ccc([N+](=O)[O-])c(O)c1` registered a TGI with MDA-N of over 100 µM.
Regarding `CC[O-].Cc1ccc2cccc([O-])c2n1.Cc1ccc2cccc([O-])c2n1.Cc1ccc2cccc([O-])c2n1.[Ti+4]`, the GI50 in the test with DLD-1 colon is 28.9 µM; with DMS 114 small cell lung, 21.9 µM; in the test on DMS 273 small cell lung, over 33.3 µM; in the test on HOP-18 NSCLC, 41.1 µM; in the test on LXFL 529 NSCLC, 24.8 µM; in the test with M19-MEL melanoma it was 14 µM. For the same molecule, the results for the GI50 in the test with SNB-78 CNS and with XF 498 CNS were 59.7 µM and 17.3 µM, respectively. Further, the TGI is over 81 µM in the test on DLD-1 colon; over 59.3 µM in the test with DMS 114 small cell lung; over 67.7 µM in the test with DMS 273 small cell lung; over 92.6 µM in the test on HOP-18 NSCLC; over 49.3 µM in the test with LXFL 529 NSCLC; 27.7 µM with M19-MEL melanoma. In addition, the results for the TGI with SNB-78 CNS and with XF 498 CNS were over 100 µM and 58.3 µM, respectively.
Regarding `CN1c2ccccc2S(=O)(=O)n2c(COc3ccc(Cl)cc3)nnc21`, the TGI with MDA-N is over 100 µM.
